Experimental data from patent US20210386813A1, “COMPOSITION FOR TREATING OVERWEIGHT AND/OR OBESITY” (NEXIRA, priority 2018, published 2021).
Marks after values point to notes of the source that are not given here.

What was measured:
adipocytes = assay: Lipolysis study of mature adipocytes (glycerol and NEFA release); format: cell-based; conditions: human adipocytes, 2 h at 37° C.; forskolin 1 μM, isoproterenol 0.1 μM; 100 = Base control
Protocol: The quantification of the production of glycerol is performed by means of the Glycerol Assay Kit test kit available from Randox under the reference GY105.
The quantification of the production of non-esterified fatty acids is performed by the NEFA HR2—RI Set, NEFA HR2—R2 Set and NEFA Standard test kits available from Fujifilm Wako Chemicals Europe under the respective references 434-91795, 436-91995 and 270-77000.
Each of these kits is based on the production of a colored compound. Thus, the respective concentrations of glycerol and non-esterified fatty acids are determined by means of optical absorbance measurements, and the comparison of these measurements with known absorbance ranges for glycerol and non-esterified fatty acid concentrations. The values are normalized by DNA quantification by means of the Quant-iT® PicoGreen® (Invitrogen®) kit available from ThermoFisher Scientific under the reference P7589.
Adipocytes coming from humans are used for the lipolysis study.
The adipocytes are prepared from subcutaneous adipose tissue digested by collagenase followed by a low centrifugation.
The adipocytes are incubated in a Krebs-Ringer bicarbonate (KRB) buffer solution, sometimes containing basolateral medium of caco-2 cells exposed with, either predetermined concentrations of extract(s) (at a rate of one 1:8 dilution each), or with reference products. The incubation time is 2 h at a temperature of 37° C. The cell culture medium is subsequently harvested and frozen at a temperature of −20° C. for use in the glycerol and NEFA tests. The adipocytes are also harvested for the DNA quantification.
Forskolin (1 μM, available from Sigma-Aldrich under the reference F6886) and isoproterenol (0.1 μM, available from Sigma-Aldrich under the reference 16504) are used as lipolysis activators.
The results are expressed in percentages in relation to the results obtained for respective BM media without extracts. The statistical analyses are performed by placing the BM environments comprising the extracts in relation with the respective BM environments without extracts.

preadipocytes [1] = assay: Preadipocyte differentiation and lipid accumulation (adipogenesis) study, BODIPY fluorescence; format: cell-based; conditions: human preadipocytes; GW9662 0.1 μM; relative to differentiated cells
Protocol: In practice, the effects of the bioavailable extracts on the lipid accumulation are studied by measuring the accumulation of lipid droplets in the differentiated preadipocytes, that is to say in the adipocytes. The measurement is optical and is performed by fluorescence.
Preadipocytes coming from humans are used for the lipid accumulation study.
The three adipose tissue donors are adult females undergoing a cosmetic or reconstructive surgery intervention.
The preadipocytes are isolated by digestion and centrifugation in accordance with the protocol described for the cytotoxicity study (I) above. […]
The quantification is based on fluorescence intensity measurements on images. The acquisition and the processing of images includes particularly: • the acquisition of microphotographs with a video microscope using the so-called Apotome technology (7 micrographs per well, 3 wells per processing condition); • the quantification of the lipid accumulation by the treatment and the image analysis of the ImageJ software developed by National Institutes of Health (NIH); • the determination of the number of nuclei by means of a shape detection and shape sorting algorithm based on the nucleus size and the circularity of the nucleus; • the connection between the fluorescence detected and the number of nuclei. […]
Fluorescence microphotographs are performed to quantify the lipid accumulation (Bodipy®). […]

UCP1 = assay: Adipose tissue phenotypic orientation (thermogenesis) study, UCP1 expression by immunofluorescence; format: cell-based; conditions: human preadipocytes; GW9662; relative to differentiated cells
From the text: The Applicant evaluated the effects of a multitude of bioavailable plant extracts, as well as the effects of the combination of these extracts, on the differentiation of preadipocytes or adipocytes into beige adipocytes. More generally the Applicant evaluated the orientation of a white phenotype towards a beige phenotype.
Preadipocytes coming from humans are used for the cellular differentiation study. The three donors are those of the cytotoxicity study (I) above.
(§1) The preadipocytes are isolated by digestion and centrifugation in accordance with the protocol described for the cytotoxicity study (I) above. The preadipocytes are spread at high density on microtiter plate 96 and cultivated according to the protocol described for the lipid accumulation study (II). The placing in contact with the basolateral medium is performed according to the protocol described for the lipid accumulation study (II).
After the culture, the differentiated cells are fixed with a 4% paraformaldehyde solution then colored with an anti-UCP1 fluorescent antibody available from Sigma-Aldrich under the reference U6382. […]
The quantification is based on fluorescence intensity measurements on images. […]
Fluorescence microphotographs are performed to quantify the UCP1 expression. […]

[2] = test system: differentiated preadipocytes; assay: Adipose tissue energy metabolism study, ATP production (Mitochondrial ToxGlo); format: cell-based, human; conditions: differentiated cells; rotenone 400 nM, 2 hours
Protocol: In order to study the energy metabolism, the ATP production is measured in the differentiated preadipocytes. This provides information on the presence of mitochondria and their activity. Here, the Mitochondrial ToxGlo® test available from Promega under the reference G8000 is used.
The test includes placing preadipocytes in contact with an ATP detection reagent. […] The ATP detection reagent comprises luciferin, ATPase inhibitors and Ultra-Glo® thermostable luciferase. The values are normalized with a DAPI quantification. The Normalization is carried out exclusively in relation to the basolateral medium.
Preadipocytes coming from humans are used for the energy metabolism study. The three donors are those of the cytotoxicity study (I) above.
as §1
The quantification of the ATP synthesis is performed on differentiated cells.
The basolateral medium (BM) comprising the bioavailable extracts of the Caco-2 cell system is harvested for the test. […]

preadipocytes [3] = assay: Cytotoxicity study of bioavailable plant extracts on human preadipocytes (LDH release, CytoTox 96); format: cell-based; conditions: relative to FBS 1% base control, 0.2% triton
Protocol: The analysis of the damage of cell membranes is performed with the CytoTox 96® Non-Radioactive Cytotoxicity Assay kit available from Promega under the reference G1780. This test is based on the principle that cells having a damaged cell membrane release […] (LDH) into the culture medium. LDH is measured by supplying in the medium lactate, oxidized nicotinamide adenine dinucleotide (NAD+) and iodonitrotetrazolium purple as substrates in presence of diaphorase. Red formazan is then created. The red formazan is proportional to the LDH released by the cells. The Applicant evaluated the cytotoxic effects of a multitude of bioavailable plant extracts, as well as the cytotoxic effects of the combination of these extracts, on preadipocytes coming from various donors. The cytotoxic effects of bioavailable plant extracts and their combinations was evaluated on preadipocytes. […] An extract is considered as cytotoxic if the LDH level measured is greater than or equal to 20% in relation to the LDH level measured with the control extract. […] The results are expressed in percentages in relation to the control extract; except for the LDH test, for which the results are expressed as percentages of the cell lysis control (average+/− SEM), which represents the positive control for the cytotoxicity (the control is fixed at 100%). […]

preadipocytes [4] = assay: Cellular viability / mitochondrial activity (MTS formazan, Cell Titer 96 AQueous One); format: cell-based; conditions: human preadipocytes; relative to FBS 1% base control; 0.2% triton
Protocol: The cytotoxic effects of bioavailable plant extracts and their combinations was evaluated on preadipocytes. Two technical approaches were implemented: • the evaluation of the cellular viability by the measurement of the production of formazan by active (therefore living) cells; and • the analysis of the damage of cell membranes by the measurement of lactate dehydrogenase (LDH) in the cell culture medium.
The evaluation of the cellular viability is performed with the Cell Titer 96® AQueous One Solution Cell Proliferation Assay test kit available from Promega under the reference G3580.
In this test, the compound MTS-tetrazolium (3-(4,5-dimethylthiazol-2-yl)-5-(3-carboxymethoxyphenyl)-2-(4-sulfophenyl)-2H-tetrazolium) is transformed by active (living) cells in a culture medium in colored formazan. The transformation of MTS-tetrazolium is performed by the mitochondria in the cells. Formazan is soluble in the culture medium. The quantity of formazan is directly proportional to the number of living cells and may be measured by spectrophotometry (absorbance).
In practice, the cellular viability test is therefore based on the mitochondrial activity of the cells.
As a result, the viability study may provide precious information for the energy metabolism study (IV). […]
The cellular viability is measured directly in the wells of the microtiter plate. […]

C=C[C@@]1(C)CC(=O)[C@]2(O)[C@@]3(C)[C@@H](O)CCC(C)(C)[C@@H]3[C@H](O)[C@H](OC(C)=O)[C@@]2(C)O1 [Forskolin]
Glycerol % Differentiated (adipocytes): 151.62** % Differentiated | NEFA % Differentiated (adipocytes): 179.70** % Differentiated

O=C(Nc1ccccc1)c1cc([N+](=O)[O-])ccc1Cl [GW9662]
Lipid accumulation % Differentiated (preadipocytes [1]): 30.59* % Differentiated | UCP1 expression (total cell normalization) % Differentiated (UCP1): 83.38 % Differentiated

CC(C)NCC(O)c1ccc(O)c(O)c1 (stereo not drawn) [Isoproterenol]
Glycerol % Differentiated (adipocytes): 213.97** % Differentiated | NEFA % Differentiated (adipocytes): 241.48** % Differentiated

C=C(C)[C@H]1Cc2c(ccc3c2O[C@@H]2COc4cc(OC)c(OC)cc4[C@@H]2C3=O)O1 [Rotenone, rotenone]
ATP production % Differentiated [2]: 27.95** % Differentiated

triton [Lysis control]
Cytotoxicity % Base control (release of LDH) (preadipocytes [3]): 1,252.05** % Base control | Mitochondrial Activity (viability) % Base control (preadipocytes [4]): 23.78** % Base control
